Results: patent US12421223B2, “Compounds and compositions for treating conditions associated with NLRP activity” (Novartis AG, priority 2018, dated 2025)

test system: IL-1β production in PMA-differentiated THP-1 cells; assay: IL-1β production in PMA-differentiated THP-1 cells stimulated with gramicidin (hTHP-1 assay, 2% fetal bovine serum); format: cell-based; details: Homo sapiens, hTHP-1 assay containing 2% fetal bovine serum, gramicidin 5 μM, IL-1β by HTRF, read-out: THP-1 IC50 (Average IC50 of compounds in hTHP-1 assay)
Method: The following protocol is suitable for testing the activity of the compounds disclosed herein.
Procedure 1: IL-1β Production in PMA-Differentiated THP-1 Cells Stimulated with Gramicidin.
THP-1 cells were purchased from the American Type Culture Collection and sub-cultured according to instructions from the supplier. Cells were cultured in complete RPMI 1640 (containing 10% heat inactivated FBS, penicillin (100 units/ml) and streptomycin (100 μg/ml)), and maintained in log phase prior to experimental setup. Prior to the experiment, compounds were dissolved in dimethyl sulfoxide (DMSO) to generate a 30 mM stock. The compound stock was first pre-diluted in DMSO to 3, 0.34, 0.042 and 0.0083 mM intermediate concentrations and subsequently spotted using Echo550 liquid handler into an empty 384-well assay plate to achieve desired final concentration (e.g. 100, 33, 11, 3.7, 1.2, 0.41, 0.14, 0.046, 0.015, 0.0051, 0.0017 μM). DMSO was backfilled in the plate to achieve a final DMSO assay concentration of 0.37%. The plate was then sealed and stored at room temperature until required.
THP-1 cells were treated with PMA (Phorbol 12-myristate 13-acetate) (20 ng/ml) for 16-18 hours. On the day of the experiment the media was removed and adherent cells were detached with trypsin for 5 minutes. Cells were then harvested, washed with complete RPMI 1640, spun down, and resuspended in RPMI 1640 (containing 2% heat inactivated FBS, penicillin (100 units/ml) and streptomycin (100 μg/ml). The cells were plated in the 384-well assay plate containing the spotted compounds at a density of 50,000 cells/well (final assay volume 50 μl). Cells were incubated with compounds for 1 hour and then stimulated with gramicidin (5 μM) (Enzo) for 2 hours. Plates were then centrifuged at 340 g for 5 min. Cell free supernatant (40 μL) was collected using a 96-channel PlateMaster (Gilson) and the production of IL-1β was evaluated by HTRF (cisbio). The plates were incubated for 18 h at 4° C. and read using the preset HTRF program (donor emission at 620 nm, acceptor emission at 668 nm) of the SpectraMax i3x spectrophotometer (Molecular Devices, software SoftMax 6). A vehicle only control and a dose titration of CRID3 (100-0.0017 μM) were run concurrently with each experiment.
Procedure 2: IL-1β Production in PMA-Differentiated THP-1 Cells Stimulated with Gramicidin.
THP-1 cells were purchased from the American Type Culture Collection and sub-cultured according to instructions from the supplier. Prior to experiments, cells were cultured in complete RPMI 1640 (containing 10% heat inactivated FBS, penicillin (100 units/ml) and streptomycin (100 μg/ml)), and maintained in log phase prior to experimental setup. Prior to the experiment THP-1 were treated with PMA (Phorbol 12-myristate 13-acetate) (20 ng/ml) for 16-18 hours. Compounds were dissolved in dimethyl sulfoxide (DMSO) to generate a 30 mM stock. On the day of the experiment the media was removed and adherent cells were detached with trypsin for 5 minutes. Cells were then harvested, washed with complete RPMI 1640, spun down, resuspended in RPMI 1640 (containing 2% heat inactivated FBS, penicillin (100 units/ml) and streptomycin (100 μg/ml). The cells were plated in a 384-well plate at a density of 50,000 cells/well (final assay volume 50 μl). Compounds were first dissolved in assay medium to obtain a 5× top concentration of 500 μM. 10 step dilutions (1:3) were then undertaken in assay medium containing 1.67% DMSO. 5× compound solutions were added to the culture medium to achieve desired final concentration (e.g. 100, 33, 11, 3.7, 1.2, 0.41, 0.14, 0.046, 0.015, 0.0051, 0.0017 μM). Final DMSO concentration was at 0.37%. Cells were incubated with compounds for 1 hour and then stimulated with gramicidin (5 μM) (Enzo) for 2 hours. Plates were then centrifuged at 340 g for 5 min. Cell free supernatant (40 μL) was collected using a 96-channel PlateMaster (Gilson) and the production of IL-1β was evaluated by HTRF (cisbio). […]

Compound	IC50
CC(C)(O)c1ncc(C(=O)c2ccnn2-c2c3c(cc4c2CCC4)CCC3)s1 [Compound 103]	5 to 30 µM
CC(C)(O)c1ncc(C(=O)c2ccn(-c3c4c(cc5c3CCC5)CCC4)n2)s1 [Compound 118]	5 to 30 µM
CC(C)(O)c1cnc(S(=O)(=O)c2cnn(-c3c4c(cc5c3CCC5)CCC4)c2)s1 [Compound 104, 2-(2-((1-(1,2,3,5,6,7-hexahydro-s-indacen-4-yl)-1H-pyrazol-4-yl)sulfonyl)thiazol-5-yl)propan-2-ol]	5 to 30 µM
CC(C)(O)c1ncc(S(=O)(=O)c2cnn(-c3c4c(cc5c3CCC5)CCC4)c2)s1 [Compound 115, 2-(5-((1-(1,2,3,5,6,7-hexahydro-s-indacen-4-yl)-1H-pyrazol-4-yl)sulfonyl)thiazol-2-yl)propan-2-ol]	5 to 30 µM

The next lines start with the values.

IC50	Compound
1 to 5 µM	CC(C)(O)c1ncc(C(CNC(=O)OCc2ccccc2)c2cnn(-c3c4c(cc5c3CCC5)CCC4)c2)s1 (stereo not drawn) [Compound 101, Benzyl (2-(1-(1,2,3,5,6,7-hexahydro-s-indacen-4-yl)-1H-pyrazol-4-yl)-2-(2-(2-hydroxypropan-2-yl)thiazol-5-yl)ethyl) carbamate]
5 to 30 µM	O=C(NCc1cnn(-c2c3c(cc4c2CCC4)CCC3)c1)OCc1ccccc1 [Compound 200, Benzyl ((1-(1,2,3,5,6,7-hexahydro-s-indacen-4-yl)-1H-pyrazol-4-yl)methyl)carbamate]
5 to 30 µM	CC(C)(O)c1ncc([C@@H](NC(=O)OCc2ccccc2)c2ccn(-c3c4c(cc5c3CCC5)CCC4)n2)s1 (single isomer, unassigned) [Compound 116]
5 to 30 µM	CC(C)(O)c1ncc(C(NC(=O)OCc2ccccc2)c2ccn(-c3c4c(cc5c3CCC5)CCC4)n2)s1 (stereo not drawn) [Compound 102, Benzyl (1-(1,2,3,5,6,7-hexahydros-indacen-4-yl)-1H-pyrazol-3-yl)(2-(2-hydroxypropan-2-yl)thiazol-5-yl)methylcarbamate]
5 to 30 µM	CC(C)(O)c1ncc(C(CNC(=O)c2ccccc2)c2cnn(-c3c4c(cc5c3CCC5)CCC4)c2)s1 (stereo not drawn) [Compound 114]
